Measurements taken from the C3SDB collision cross section collection.
Where “and” joins values, the source holds several entries; their conditions need not be identical. Equal values may be shown once.

Assays:
[1] = instrument: DT, stepped-field
[2] = instrument: DT, single field, calibrated with Agilent tune mix (Agilent)

Structure (SMILES) | collision cross section (N2) ([1]; [M+H]+) | collision cross section (N2) ([1]; [M+Na]+) | further results
NC(=NCCC[C@H](N)C(=O)O)N[C@@H](CC(=O)O)C(=O)O [Argininosuccinic Acid] | 167.39 Å² | 172.22 Å² | –
CCNc1nc(Cl)nc(NC(C)C)n1 [Atrazine] | 150.74 Å² | – | –
C1=Cc2c3ccc4ccccc4c3cc3cccc1c23 [Benz(j)aceanthrylene] | 155.08 Å² | – | –
c1ccc2c(c1)cc1ccc3cccc4ccc2c1c34 [Benzo(a)Pyrene] | 152.05 Å² | – | –
CCCCC/C=C\C/C=C\C/C=C\CCCCCCC(=O)O [Bishomo-gamma-linolenic Acid] | – | 183.38 Å² | –
NCCC(=O)N[C@@H](Cc1cnc[nH]1)C(=O)O [Carnosine] | 152.18 Å² | – | –
Oc1cc(O)c2cc(O)c(-c3ccc(O)c(O)c3)[o+]c2c1 [Cyanidin] | – | – | collision cross section (N2) ([1]; [M]+): 168.33 Å²
O=C(O)[C@H]1OC(O)[C@H](O)[C@@H](O)[C@@H]1O (stereo partly drawn) [D-Glucuronate] | – | 153.13 Å² | –
O=C[C@H](O)COP(=O)(O)O [D-Glyceraldehyde 3-Phosphate] | 135.86 Å² | – | –
O=C(CO)[C@H](O)[C@H](O)COP(=O)(O)O [D-Ribulose 5-Phosphate] | – | 153.25 Å² | –
O=C(CO)[C@@H](O)[C@H](O)CO [D-Xylulose] | – | 141.76 Å² | –
Nc1nc(=O)c2c([nH]1)NCC(CNc1ccc(C(=O)N[C@@H](CCC(=O)O)C(=O)O)cc1)=N2 [Dihydrofolate] | 193.63 Å² | – | –
N#Cc1c[nH]cc1-c1cccc2c1OC(F)(F)O2 [Fludioxonil] | – | 165.7 Å² | –
CN(C)C(=O)Nc1cccc(C(F)(F)F)c1 [Fluometuron] | 152.2 Å² | 161.2 Å² | –
CP(=O)(O)CCC(N)C(=O)O (stereo not given) [Glufosinate] | 140.15 Å² | 142.7 Å² | –
Oc1ccc(O)cc1 [Hydroquinone] | 128.79 Å² | – | –
CCCCC/C=C\C\C=C/C=C/C=C/[C@@H](SC[C@H](NC(=O)CC[C@H](N)C(=O)O)C(=O)NCC(=O)O)[C@@H](O)CCCC(=O)O [Leukotriene C4] | 257.4 Å² | 260.57 Å² | –
CCCCC[C@H](O)/C=C/C=C\C=C\C=C\[C@@H](O)[C@@H](O)CCCC(=O)O [Lipoxin A4] | – | 197.89 Å² | –
OC[C@H]1O[C@@H](O[C@H]2[C@H](O)[C@H](O)[C@H](O[C@H]3[C@H](O)[C@H](O)[C@H](O[C@H]4[C@H](O)[C@H](O)C(O)O[C@@H]4CO)O[C@@H]3CO)O[C@@H]2CO)[C@@H](O)[C@@H](O)[C@@H]1O (stereo not given in full) [Mannotetraose] | – | 234.12 Å² | –

Structure (SMILES) | collision cross section (N2) ([1]; [M+H]+) | collision cross section (N2) ([1]; [M+Na]+) | further results
CO[C@@H]1O[C@H](CO)[C@H](O)[C@H](O)[C@H]1O [Methyl beta-D-galactoside] | – | 149.97 Å² | –
CC(=O)N[C@@H]1C(O)O[C@H](CO)[C@@H](O)[C@@H]1O (stereo partly drawn) [N-Acetyl-D-mannosamine] | – | 154.76 Å² | –
CC(=O)N[C@@H](C)C(=O)O [N-Acetyl-L-alanine] | – | 138.07 Å² | –
O=C1CC(c2ccc(O)cc2)Oc2cc(O)cc(O)c21 (stereo not given) [Naringenin] | 167.96 Å² | – | –
O=C(O)c1cccnc1 [Nicotinic Acid] | 128.35 Å² | – | –
CCCCCCCC/C=C\CCCCCCCC(=O)O [Oleic Acid] | – | 181.37 Å² | –
CC[C@H](NC(=O)CC[C@H](N)C(=O)O)C(=O)NCC(=O)O [Ophthalmic Acid] | 167.23 Å² | 165.7 Å² | –
COc1cc(O)c2c(c1)O[C@H](c1ccccc1)CC2=O [Pinostrobin] | 164.24 Å² | – | –
CCCCC[C@H](O)/C=C/[C@@H]1[C@@H](C/C=C\CCCC(=O)O)[C@@H](O)C[C@H]1O [Prostaglandin F2a] | – | 205.7 Å² | –
CCCCC[C@H](O)/C=C/[C@@H]1[C@@H](C/C=C\CCCC(=O)O)[C@@H]2C[C@H]1OO2 [Prostaglandin H2] | – | 202.63 Å² | –
CO[C@H]1/C=C/O[C@@]2(C)Oc3c(C)c(O)c4c(c3C2=O)C(=O)/C(=C/NN2CCN(C)CC2)C(=C4O)NC(=O)/C(C)=C\C=C\[C@H](C)[C@H](O)[C@@H](C)[C@@H](O)[C@@H](C)[C@H](OC(C)=O)[C@@H]1C [Rifampicin] | 287.13 Å² | 285.07 Å² | –
C[S+](CC[C@H](N)C(=O)[O-])C[C@H]1O[C@@H](n2cnc3c(N)ncnc32)[C@H](O)[C@@H]1O (stereo partly drawn) [S-Adenosyl-L-methionine] | 186.46 Å² | – | –
CCCCCCSC[C@H](NC(=O)CC[C@H](N)C(=O)O)C(=O)NCC(=O)O [S-Hexyl-glutathione] | 203.2 Å² | – | –
C=C[C@H]1[C@H](O[C@@H]2O[C@H](CO)[C@@H](O)[C@H](O)[C@H]2O)OC=C(C(=O)OC)[C@H]1CC=O [Secologanin] | – | 191.96 Å² | –
O=C(O)CCC(=O)O [Succinic Acid] | 122.66 Å² | – | –
Nc1ccc(S(N)(=O)=O)cc1 [Sulfanilamide] | 156.07 Å² | 152.77 Å² | –
Cc1cn([C@H]2C[C@H](O)[C@@H](COP(=O)(O)O)O2)c(=O)[nH]c1=O [Thymidine 5'-Monophosphate] | 163.84 Å² | 169.74 Å² | –
O=P(O)(O)OC[C@H]1O[C@H](O[C@H]2O[C@H](CO)[C@@H](O)[C@H](O)[C@H]2O)[C@H](O)[C@@H](O)[C@@H]1O [Trehalose 6-Phosphate] | – | 192.43 Å² | –
C[n+]1cccc(C(=O)[O-])c1 [Trigonelline] | 126.37 Å² | 139.87 Å² | –

The next lines start with results.

collision cross section (N2) ([1]; [M+H]+) | collision cross section (N2) ([1]; [M+Na]+) | Structure (SMILES) | further results
162.1 Å² | 171.99 Å² | C[C@H]1O[C@@H](n2cnc3c(N)ncnc32)[C@H](O)[C@@H]1O [5'-Deoxyadenosine] | collision cross section (N2) ([2]; [M+Na]+): 166.8 Å²; collision cross section (N2) ([2]; [M-H]-): 151.91 Å²
142.8 Å² | – | CC12CCC(CC1=O)C2(C)C (stereo not given) [Camphor] | –
– | 225 Å² | OC[C@H]1O[C@@H](O[C@H]2[C@H](O)[C@@H](O)[C@H](O[C@H]3[C@H](O)[C@@H](O)[C@H](O[C@H]4[C@H](O)[C@@H](O)C(O)O[C@@H]4CO)O[C@@H]3CO)O[C@@H]2CO)[C@H](O)[C@@H](O)[C@@H]1O (stereo not given in full) [Cellotetraose] | –
148.9 Å² | 146.11 Å² | O=C(O)CC(O)(CC(=O)O)C(=O)O [Citric Acid] | –
– | 177 Å² | OC[C@H]1O[C@H](O[C@H]2[C@H](O)[C@H](O)COC2(O)CO)[C@H](O)[C@@H](O)[C@@H]1O (stereo partly drawn) [D-(+)-Turanose] | –
– | 142.39 Å² | OC[C@H]1OC(O)[C@H](O)[C@@H](O)[C@H]1O (stereo partly drawn) [D-Galactose] | –
– | 147.72 Å² | OC[C@H]1OC(O)[C@H](O)[C@@H](O)[C@@H]1O (stereo partly drawn) [D-Glucose] | –
– | 155.8 Å² | O=P(O)(O)OC[C@H]1OC(O)[C@H](O)[C@@H]1O (stereo partly drawn) [D-Ribose 5-Phosphate] | –
– | 151.4 Å² | O=C[C@H](O)[C@@H](O)[C@H](O)COP(=O)(O)O [D-Xylose 5-phosphate] | –
130.93 Å² | – | O=C(O)[C@@H]1CCCCN1 [L-Pipecolic Acid] | –
241.9 Å² | – | CCCCCCCCCCCCCCCCCCC(=O)OC[C@@H](O)COP(=O)([O-])OCC[N+](C)(C)C [LPC(19:0)] | –
– | 217.5 Å² | CCCCCCCCCCCC(=O)O[C@H](CC(=O)[O-])C[N+](C)(C)C [Lauroyl-L-carnitine] | –
– | 196.05 Å² | CCCCC/C=C\C[C@@H](O)/C=C/C=C/C=C\[C@@H](O)CCCC(=O)O [Leukotriene B4] | –
187.54 Å² | – | CCCCCCCCCCCCCCCCCCCCCCCC(=O)OC [Methyl Tetracosanoate] | –
222.79 Å² | 232.01 Å² | NC(=O)c1ccc[n+]([C@@H]2O[C@H](COP(=O)(O)OP(=O)(O)OC[C@H]3O[C@@H](n4cnc5c(=O)nc[nH]c54)[C@H](O)[C@@H]3O)[C@@H](O)[C@H]2O)c1 [Nicotinamide Hypoxanthine Dinucleotide] | –
257.07 Å² | 260.59 Å² | CCCCCCCCCCC(=O)OC[C@H](COP(=O)([O-])OCC[N+](C)(C)C)OC(=O)CCCCCCCCCC [PC(11:0/11:0)] | –
280.6 Å² and 284.02 Å² | 287.57 Å² and 288.54 Å² | CCCCCCC/C=C\CCCCCCCC(=O)OC[C@H](COP(=O)(O)OCCN)OC(=O)CCCCCCC/C=C\CCCCCCCCC [PE(18:1/18:1)] | –
– | 177.31 Å² | OC[C@H]1O[C@H](OC[C@H]2OC(O)(CO)[C@@H](O)[C@@H]2O)[C@H](O)[C@@H](O)[C@@H]1O (stereo not given in full) [Palatinose] | –
134.59 Å² | – | O=C1C=Cc2cccc3cccc1c23 [Perinaphthenon] | –
160.93 Å² | 171.25 Å² | NC(=O)CC[C@H](NC(=O)Cc1ccccc1)C(=O)O [Phenylacetyl L-Glutamine] | –
138.54 Å² | – | C[N+](C)(C)CCOP(=O)(O)O [Phosphocholine] | –
– | 207.33 Å² | CCCCC[C@H](O)/C=C/[C@@H]1[C@@H](C/C=C\CCCC(=O)O)[C@@H](O)C[C@H]1O [Prostaglandin F2 alpha] | –
149.5 Å² | – | O=C(O)C1=C[C@@H](O)[C@@H](O)[C@H](O)C1 [Shikimic Acid] | –
– | 191.83 Å² | CCCCCCCCCCCCCCCCCC(=O)O [Stearic Acid] | –
172.53 Å² | – | Cc1ncc(C[n+]2csc(CCOP(=O)(O)O)c2C)c(N)n1 [Thiamine Monophosphate] | –
